Laboratory results reported in US20180318343A1, “THERAPEUTIC AGENT FOR SKIN WOUND OR ROUGH SKIN” (JFE MINERAL COMPANY, LTD., priority 2015, published 2018).

Experiments:
fibroblast = settings: cited from earlier work
skin = settings: in vivo; cited from earlier work
[1] = Dissolution test by stirring method in saline; settings: per BET surface area, mass ratio 1:50, stirring 500 rpm, 37° C., 3 hours
Method: The amount of dissolved Zn^2+ ions is measured in the present description, as follows: The surface areas of samples, which are produced with varying pH values at production by the same process as that for Preparation Example 2 of Examples to be described later, are measured beforehand by the BET method (BET specific surface area analyzer: High Precision, Multi-Analyte Gas Absorption Analyzer, manufactured by Quantachrome Instruments Japan G.K.). For each sample, the Zn^2+ ion concentration after stirring in saline is measured with an ICP emission spectrometer (ICPE-9000, manufactured by Shimadzu Corporation) to thereby obtain the amount of dissolved Zn^2+ ions, and then the amount of dissolved Zn^2+ ions is divided by the previously measured surface area. The mass ratio between each sample and the saline is set to 1:50, and the amount of Zn^2+ ions dissolved in the saline is measured after 3-hour stirring at 500 rpm at 37° C. by means of a rotor. […]
A dissolution test by a stirring method was conducted on 0.6 g each of dry powders obtained in Preparation Example 2 using 30 g of saline, and the amount of dissolved Zn^2+ ions and the pH were measured. […] Then the pH and the Zn^2+ ion concentration after the dissolution test were measured. […]

## [Zn+2] [zinc ions]
fibroblast
  zinc ion concentration that does not exhibit toxicity to a fibroblast: not more than 500 μmol/L
skin
  zinc ion level leading to increased inflammatory cell infiltration in skin and remarkably delayed reepithelization: not less than 15 mmol/L

## [O]=[Zn] [zinc oxide]
[1]
  Amount of dissolved Zn^2+ ions after dissolution test: sufficient

## [OH-].[OH-].[Zn+2] [zinc hydroxide]
[1]
  Amount of dissolved Zn^2+ ions after dissolution test: less than 0.1 μg/m^2
